Experimental data reported in US9687479B2, “Multisubstituted aromatic compounds as serine protease inhibitors” (VERSEON CORPORATION, priority 2013, dated 2017).

Target: Human thrombin (Homo sapiens (Human), UniProt P00734)
Test: Thrombin protease activity inhibition assay (chromogenic substrate S-2238)
Format: biochemical
Details: 3 nM thrombin, 125 μM S-2238, 10 min pre-incubation, RT
Method: The thrombin activity reported herein (e.g., Table A) was obtained as follows. […] Thrombin was assayed in buffer containing 0.05 M Tris (pH 7.4), 0.015 M NaCl and 0.01% PEG-8000. The final concentration of enzyme used was 3 nM thrombin. […] All assays were performed in 96-well microtiter plates at room temperature (RT). […] Inhibitor IC50 values were determined by adding test compound as ten point, three-fold serial dilutions in buffer solution, as known in the art. The plate was read at 10 minutes after substrate addition. The IC50 was calculated by plotting the percent (%) inhibition against compound concentration and fitting the data to a constrained four parameter sigmoidal curve, as known in the art.

Row | Compound | IC50
1 | CCOC(=O)Cn1cccc(-c2cc(NCc3ccc(Cl)s3)n[nH]2)c1=O [Cmpd 260, ethyl 2-[3-(5-[(5-chlorothiophen-2-yl)methyl]amino-1H-pyrazol-3-yl)-2-oxo-1,2-dihydropyridin-1-yl]acetate] | 10000 to 100000 nM
2 | O=c1c(-c2cc(NCc3ccc(Cl)s3)[nH]n2)cccn1Cc1ccsc1 [Cmpd 232, 3-(5-[(5-chlorothiophen-2-yl)methyl]amino-1H-pyrazol-3-yl)-1-(thiophen-3-ylmethyl)-1,2-dihydropyridin-2-one] | 1000 to 10000 nM
3 | O=c1c(-c2cc(NCc3ccc(Cl)s3)[nH]n2)cccn1Cc1nnn[nH]1 [Cmpd 219, 3-(5-[(5-chlorothiophen-2-yl)methyl]amino-1H-pyrazol-3-yl)-1-(1H-1,2,3,4-tetrazol-5-ylmethyl)-1,2-dihydropyridin-2-one] | 10000 to 100000 nM
4 | Cn1cccc(-c2cc(NCc3ccc(Cl)s3)n[nH]2)c1=O [Cmpd 236, 3-(5-[(5-chlorothiophen-2-yl)methyl]amino-1H-pyrazol-3-yl)-1-methyl-1,2-dihydropyridin-2-one] | 10000 to 100000 nM
5 | COc1ccc(C(=O)n2nc(-c3cccn(Cc4ncccn4)c3=O)cc2NCc2ccc(Cl)s2)c(OC)c1 [Cmpd 128, 3-(5-[(5-chlorothiophen-2-yl)methyl]amino-1-[(2,4-dimethoxyphenyl)carbonyl]-1H-pyrazol-3-yl)-1-(pyrimidin-2-ylmethyl)-1,2-dihydropyridin-2-one] | > 100000 nM
6 | O=C(c1ccco1)n1nc(-c2cccn(Cc3cccnn3)c2=O)cc1NCc1ccc(Cl)s1 [Cmpd 163, 3-(5-[(5-chlorothiophen-2-yl)methyl]amino-1-[(furan-2-yl)carbonyl]-1H-pyrazol-3-yl)-1-(pyridazin-3-ylmethyl)-1,2-dihydropyridin-2-one] | > 100000 nM
7 | O=c1c(-c2cc(NCc3ccc(Cl)s3)[nH]n2)cccn1Cc1ccco1 [Cmpd 222, 3-(5-[(5-chlorothiophen-2-yl)methyl]amino-1H-pyrazol-3-yl)-1-(furan-2-ylmethyl)-1,2-dihydropyridin-2-one] | > 100000 nM
8 | O=C(c1cccc2c1OCCO2)n1nc(-c2ccc[nH]c2=O)cc1NCc1ccc(Cl)s1 [Cmpd 108, 3-(5-[(5-chlorothiophen-2-yl)methyl]amino-1-[(2,3-dihydro-1,4-benzodioxin-5-yl)carbonyl]-1H-pyrazol-3-yl)-1,2-dihydropyridin-2-one] | < 100 nM
9 | COCCn1cccc(-c2cc(NCc3ccc(Cl)s3)n(C(=O)c3ccoc3)n2)c1=O [Cmpd 171, 3-(5-[(5-chlorothiophen-2-yl)methyl]amino-1-[(furan-3-yl)carbonyl]-1H-pyrazol-3-yl)-1-(2-methoxyethyl)-1,2-dihydropyridin-2-one] | > 100000 nM
10 | O=C(c1cccc2c1OCCO2)n1nc(-c2cccn(Cc3cccnc3)c2=O)cc1NCc1ccc(Cl)s1 [Cmpd 114, 3-(5-[(5-chlorothiophen-2-yl)methyl]amino-1-[(2,3-dihydro-1,4-benzodioxin-5-yl)carbonyl]-1H-pyrazol-3-yl)-1-(pyridin-3-ylmethyl)-1,2-dihydropyridin-2-one] | < 100 nM
11 | O=C(c1ccoc1)n1nc(-c2cccn(Cc3cccnc3)c2=O)cc1NCc1ccc(Cl)s1 [Cmpd 177, 3-(5-[(5-chlorothiophen-2-yl)methyl]amino-1-[(furan-3-yl)carbonyl]-1H-pyrazol-3-yl)-1-(pyridin-3-ylmethyl)-1,2-dihydropyridin-2-one] | < 100 nM
12 | O=C(c1ccoc1)n1nc(-c2cccn(CCN3CCOCC3)c2=O)cc1NCc1ccc(Cl)s1 [Cmpd 181, 3-(5-[(5-chlorothiophen-2-yl)methyl]amino-1-[(furan-3-yl)carbonyl]-1H-pyrazol-3-yl)-1-[2-(morpholin-4-yl)ethyl]-1,2-dihydropyridin-2-one] | < 100 nM
13 | O=C(c1ccco1)n1nc(-c2cccn(Cc3ccoc3)c2=O)cc1NCc1ccc(Cl)s1 [Cmpd 162, 3-(5-[(5-chlorothiophen-2-yl)methyl]amino-1-[(furan-2-yl)carbonyl]-1H-pyrazol-3-yl)-1-(furan-3-ylmethyl)-1,2-dihydropyridin-2-one] | < 100 nM
14 | COc1ccccc1C(=O)n1nc(-c2cccn(Cc3ccccc3)c2=O)cc1NCc1ccc(Cl)s1 [Cmpd 47, 1-benzyl-3-(5-[(5-chlorothiophen-2-yl)methyl]amino-1-[(2-methoxyphenyl)carbonyl]-1H-pyrazol-3-yl)-1,2-dihydropyridin-2-one] | < 100 nM
15 | CC(C)(C)C(=O)n1nc(-c2cccn(CCc3ccccc3)c2=O)cc1NCc1ccc(Cl)s1 [Cmpd 76, 3-(5-[(5-chlorothiophen-2-yl)methyl]amino-1-(2,2-dimethylpropanoyl)-1H-pyrazol-3-yl)-1-(2-phenylethyl)-1,2-dihydropyridin-2-one] | < 100 nM

Second part, the molecule after the results:

Row | IC50 | Compound
16 | < 100 nM | O=C(c1cccs1)n1nc(-c2cccn(Cc3ccco3)c2=O)cc1NCc1ccc(Cl)s1 [Cmpd 183, 3-(5-[(5-chlorothiophen-2-yl)methyl]amino-1-[(thiophen-2-yl)carbonyl]-1H-pyrazol-3-yl)-1-(furan-2-ylmethyl)-1,2-dihydropyridin-2-one]
17 | < 100 nM | COc1ccccc1C(=O)n1nc(-c2cccn(Cc3ccccn3)c2=O)cc1NCc1ccc(Cl)s1 [Cmpd 139, 3-(5-[(5-chlorothiophen-2-yl)methyl]amino-1-[(2-methoxyphenyl)carbonyl]-1H-pyrazol-3-yl)-1-(pyridin-2-ylmethyl)-1,2-dihydropyridin-2-one]
18 | < 100 nM | CC(C)(C)C(=O)n1nc(-c2cccn(Cc3ccc4ccccc4c3)c2=O)cc1NCc1ccc(Cl)s1 [Cmpd 80, 3-(5-[(5-chlorothiophen-2-yl)methyl]amino-1-(2,2-dimethylpropanoyl)-1H-pyrazol-3-yl)-1-(naphthalen-2-ylmethyl)-1,2-dihydropyridin-2-one]
19 | < 100 nM | CC1(C(=O)n2nc(-c3cccn(Cc4ccsc4)c3=O)cc2NCc2ccc(Cl)s2)CCOCC1 [Cmpd 158, 3-(5-[(5-chlorothiophen-2-yl)methyl]amino-1-[(4-methyloxan-4-yl)carbonyl]-1H-pyrazol-3-yl)-1-(thiophen-3-ylmethyl)-1,2-dihydropyridin-2-one]
20 | < 100 nM | COc1ccccc1C(=O)n1nc(-c2cccn(Cc3cccs3)c2=O)cc1NCc1ccc(Cl)s1 [Cmpd 143, 3-(5-[(5-chlorothiophen-2-yl)methyl]amino-1-[(2-methoxyphenyl)carbonyl]-1H-pyrazol-3-yl)-1-(thiophen-2-ylmethyl)-1,2-dihydropyridin-2-one]
21 | < 100 nM | O=C(c1cccc2c1OCCO2)n1nc(-c2cccn(Cc3ccco3)c2=O)cc1NCc1ccc(Cl)s1 [Cmpd 110, 3-(5-[(5-chlorothiophen-2-yl)methyl]amino-1-[(2,3-dihydro-1,4-benzodioxin-5-yl)carbonyl]-1H-pyrazol-3-yl)-1-(furan-2-ylmethyl)-1,2-dihydropyridin-2-one]
22 | < 100 nM | COCC(C)(C)C(=O)n1nc(-c2ccc[nH]c2=O)cc1NCc1ccc(Cl)s1 [Cmpd 96, 3-(5-[(5-chlorothiophen-2-yl)methyl]amino-1-(3-methoxy-2,2-dimethylpropanoyl)-1H-pyrazol-3-yl)-1,2-dihydropyridin-2-one]
23 | < 100 nM | CC(C)(C)C(=O)n1nc(-c2cccn(Cc3ccoc3)c2=O)cc1NCc1ccc(Cl)s1 [Cmpd 78, 3-(5-[(5-chlorothiophen-2-yl)methyl]amino-1-(2,2-dimethylpropanoyl)-1H-pyrazol-3-yl)-1-(furan-3-ylmethyl)-1,2-dihydropyridin-2-one]
24 | < 100 nM | COCC(C)(C)C(=O)n1nc(-c2cccn(CCN3CCOCC3)c2=O)cc1NCc1ccc(Cl)s1 [Cmpd 107, 3-(5-[(5-chlorothiophen-2-yl)methyl]amino-1-(3-methoxy-2,2-dimethylpropanoyl)-1H-pyrazol-3-yl)-1-[2-(morpholin-4-yl)ethyl]-1,2-dihydropyridin-2-one]
25 | < 100 nM | CC(C)(C)C(=O)n1nc(-c2cccn(Cc3ccccc3Cl)c2=O)cc1NCc1ccc(Cl)s1 [Cmpd 27, 1-[(2-chlorophenyl)methyl]-3-(5-[(5-chlorothiophen-2-yl)methyl]amino-1-(2,2-dimethylpropanoyl)-1H-pyrazol-3-yl)-1,2-dihydropyridin-2-one]
26 | < 100 nM | COc1ccccc1C(=O)n1nc(-c2cccn(CC#N)c2=O)cc1NCc1ccc(Cl)s1 [Cmpd 57, 2-[3-(5-[(5-chlorothiophen-2-yl)methyl]amino-1-[(2-methoxyphenyl)carbonyl]-1H-pyrazol-3-yl)-2-oxo-1,2-dihydropyridin-1-yl]acetonitrile]
27 | < 100 nM | COc1ccc(C(=O)n2nc(-c3cccn(Cc4ccsc4)c3=O)cc2NCc2ccc(Cl)s2)c(OC)c1 [Cmpd 130, 3-(5-[(5-chlorothiophen-2-yl)methyl]amino-1-[(2,4-dimethoxyphenyl)carbonyl]-1H-pyrazol-3-yl)-1-(thiophen-3-ylmethyl)-1,2-dihydropyridin-2-one]
28 | < 100 nM | O=C(c1ccsc1)n1nc(-c2cccn(CCN3CCOCC3)c2=O)cc1NCc1ccc(Cl)s1 [Cmpd 204, 3-(5-[(5-chlorothiophen-2-yl)methyl]amino-1-[(thiophen-3-yl)carbonyl]-1H-pyrazol-3-yl)-1-[2-(morpholin-4-yl)ethyl]-1,2-dihydropyridin-2-one]
29 | < 100 nM | CC(C)(C)C(=O)n1nc(-c2cccn(Cc3cccc4ccccc34)c2=O)cc1NCc1ccc(Cl)s1 [Cmpd 79, 3-(5-[(5-chlorothiophen-2-yl)methyl]amino-1-(2,2-dimethylpropanoyl)-1H-pyrazol-3-yl)-1-(naphthalen-1-ylmethyl)-1,2-dihydropyridin-2-one]
30 | < 100 nM | COc1ccccc1C(=O)n1nc(-c2cccn(Cc3ccco3)c2=O)cc1NCc1ccc(Cl)s1 [Cmpd 135, 3-(5-[(5-chlorothiophen-2-yl)methyl]amino-1-[(2-methoxyphenyl)carbonyl]-1H-pyrazol-3-yl)-1-(furan-2-ylmethyl)-1,2-dihydropyridin-2-one]
